Earlier results as cited in patent publication US7338780B2, “Method for producing tripeptides and/or peptides longer than tripeptides” (Ajinomoto Co., Inc., priority 2002, dated 2008).
Residues, ends and D or L forms follow the SMILES beside them.

- water-solubility compared with L-glutamine: higher
SMILES: C[C@H](N)C(=O)N[C@@H](CCC(N)=O)C(=O)O [L-alanyl-L-glutamine] (H-Ala-Gln-OH)
